Experimental data from ChEMBL document CHEMBL1201862, “PubChem BioAssay data set” (2004).
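Exposure lasted 48 hours, with cells grown in 96-well plates and compounds tested at five concentrations. Abbreviation: GI50, concentration required for 50% inhibition of growth.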 Calls of active or inactive are those of the source. No stated cut-off is given here; in the data, active = GI50 up to about 1.1 µM and inactive = higher.

How the values were obtained:
Assay in all cases: NCI-60 cell line screen, 48 h
ACHN = system: ACHN
EKVX = system: EKVX
HOP-62 = system: HOP-62
Hs-578T = system: Hs-578T
IGROV-1 = system: IGROV-1
K562 = system: K562
MDA-MB-435 = system: MDA-MB-435
MOLT-4 = system: MOLT-4
NCI/ADR-RES = system: NCI/ADR-RES
OVCAR-4 = system: OVCAR-4
RPMI-8226 = system: RPMI-8226
RXF 393 = system: RXF 393
SF-295 = system: SF-295
SK-MEL-28 = system: SK-MEL-28
SK-MEL-5 = system: SK-MEL-5
SNB-75 = system: SNB-75
U-251 = system: U-251
UO-31 = system: UO-31
A498 = system: A498
SR = system: SR

Measured: GI50

Cc1c(/N=N/c2ccc(Cl)cc2)c(C)n(C2OC(CO)C(O)C(O)C2O)c(=S)c1C#N (configuration not stated)
inactive: ACHN 19.6 µM | EKVX 21.8 µM | HOP-62 18.1 µM | Hs-578T 10.7 µM | IGROV-1 15.1 µM | K562 16.7 µM | MDA-MB-435 20.2 µM | MOLT-4 13.9 µM | NCI/ADR-RES 19 µM | OVCAR-4 16.5 µM | RPMI-8226 16.4 µM | RXF 393 31.1 µM | SF-295 31.8 µM | SK-MEL-28 23.4 µM | SK-MEL-5 8.45 µM | SNB-75 28 µM | U-251 18.2 µM | UO-31 23.4 µM

Cc1ccc(/C=N/Nc2nc3ccccc3s2)s1
inactive: ACHN > 100 µM | EKVX 50.7 µM | HOP-62 26.2 µM | Hs-578T 66.1 µM | IGROV-1 18.8 µM | K562 31.5 µM | MDA-MB-435 > 100 µM | MOLT-4 > 100 µM | NCI/ADR-RES > 100 µM | OVCAR-4 34.4 µM | RPMI-8226 > 100 µM | RXF 393 82.6 µM | SF-295 40.9 µM | SK-MEL-28 > 100 µM | SK-MEL-5 38.9 µM | SNB-75 46.3 µM | U-251 81.1 µM | UO-31 51.6 µM

Cc1cc2[n-][n+]3ncc(-c4ccccc4)n3c2cc1[N+](=O)[O-]
inactive: A498 > 100 µM | ACHN > 100 µM | EKVX > 100 µM | HOP-62 > 100 µM | Hs-578T > 100 µM | IGROV-1 > 100 µM | K562 > 100 µM | MDA-MB-435 > 100 µM | MOLT-4 > 100 µM | OVCAR-4 > 100 µM | RPMI-8226 > 100 µM | RXF 393 > 100 µM | SF-295 > 100 µM | SK-MEL-28 > 100 µM | SK-MEL-5 > 100 µM | SNB-75 > 100 µM | SR > 100 µM | U-251 > 100 µM | UO-31 > 100 µM

Cc1c(S(=O)(=O)/N=C(\NN)Nc2ccc(Cl)cc2)sc2ccc(Cl)cc12
inactive: A498 15.8 µM | ACHN 16.3 µM | EKVX 13.9 µM | HOP-62 18.7 µM | Hs-578T 36.6 µM | IGROV-1 15.2 µM | K562 24 µM | MOLT-4 13.1 µM | NCI/ADR-RES 18 µM | OVCAR-4 15.5 µM | RPMI-8226 27.9 µM | RXF 393 11.1 µM | SF-295 17.9 µM | SK-MEL-28 20.6 µM | SK-MEL-5 17.1 µM | SNB-75 14.8 µM | SR 22.2 µM | U-251 16.3 µM | UO-31 19 µM

COc1cccc(C2c3cc4c(cc3OC(NNS(=O)(=O)c3ccc(C)cc3)C2C)OCO4)c1OC (configuration not stated)
inactive: A498 2.41 µM | ACHN 2.77 µM | EKVX 3.18 µM | HOP-62 2.84 µM | Hs-578T 1.83 µM | IGROV-1 2.52 µM | K562 2.12 µM | MDA-MB-435 3.57 µM | MOLT-4 2.74 µM | RPMI-8226 2.28 µM | RXF 393 2.12 µM | SF-295 2.9 µM | SK-MEL-28 6.98 µM | SK-MEL-5 2.83 µM | SNB-75 2.52 µM | SR 1.36 µM | U-251 2.62 µM | UO-31 2.63 µM

N#Cc1c(N)c(-c2ccc(Cl)cc2)c(F)c2ccccc12
inactive: A498 > 100 µM | ACHN > 100 µM | EKVX 7 µM | HOP-62 > 100 µM | Hs-578T 7.35 µM | IGROV-1 > 100 µM | K562 > 100 µM | MDA-MB-435 > 100 µM | NCI/ADR-RES > 100 µM | OVCAR-4 > 100 µM | RPMI-8226 6.65 µM | RXF 393 18.8 µM | SF-295 > 100 µM | SK-MEL-28 > 100 µM | SK-MEL-5 > 100 µM | SNB-75 11.1 µM | U-251 96.4 µM | UO-31 3.2 µM

COc1ccc2c(c1)N=C(N)n1c(nc3ccccc31)S2
inactive: A498 32.1 µM | ACHN 21.3 µM | HOP-62 57.8 µM | Hs-578T 58.1 µM | IGROV-1 16.1 µM | K562 10.9 µM | MOLT-4 5.28 µM | NCI/ADR-RES 19.2 µM | OVCAR-4 4.66 µM | RPMI-8226 4.47 µM | RXF 393 19.5 µM | SF-295 38.5 µM | SK-MEL-28 70.1 µM | SK-MEL-5 7.29 µM | SNB-75 31.7 µM | SR 5.52 µM | U-251 6.27 µM | UO-31 12.2 µM

O=C(c1cc(Cl)cc(Cl)c1)N1CCN(C(=O)c2cc(Cl)cc(Cl)c2)C1=S
inactive: A498 15.5 µM | ACHN 16 µM | EKVX 16.8 µM | HOP-62 14.8 µM | Hs-578T 24.2 µM | IGROV-1 14.1 µM | K562 8.39 µM | MDA-MB-435 11.7 µM | MOLT-4 3.94 µM | OVCAR-4 19.1 µM | RPMI-8226 2.38 µM | RXF 393 11.8 µM | SF-295 20.3 µM | SK-MEL-28 23.2 µM | SK-MEL-5 16.1 µM | SNB-75 14.1 µM | SR 3.26 µM | U-251 13.1 µM | UO-31 2.31 µM
